Assay [1] concerns the target EGFR(Dell9_T790M_C797S) (aa 669-1210, in house) (Homo sapiens, UniProt P00533, T790M/C797S, form not given). The experiment in a line: Biochemical EGFR inhibition assay (TR-FRET), Del19/T790M/C797S mutant. Conditions: ATP at Km, 15 min pre-incubation, 60 min reaction; read-out: Del_TM_CS (Km ATP) IC50. Put shortly: (§1)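 First the enzyme sat with compound for 15 minutes at room temperature, then ATP (Km level) and biotinylated poly-GT were added for a 60 min reaction. Stop solution with EDTA, anti-pTyr cryptate and streptavidin-XL665 followed for 1 h before TR-FRET reading.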
(Time-resolved FRET reads energy transfer from a long-lived donor to a nearby acceptor.)

The target in assay [2] is T1, EGFR (aa668-1210, Invitrogen) (Homo sapiens, UniProt P00533).
T1 construct: EGFR (aa668-1210, Invitrogen); purchased Invitrogen
The experiment in a line: Biochemical EGFR inhibition assay (TR-FRET), wild-type EGFR. Conditions: ATP at Km, 15 min pre-incubation, 60 min reaction; read-out: WT (Km ATP) IC50. Put shortly:
as §1

In the next assay the target is BaF3-WT cells (Homo sapiens, UniProt P00533). The experiment in a line: Cell antiproliferation assay (CellTiter-Glo), BaF3-WT. Conditions: 48 h treatment, read-out: BaF3-WT IC50. In kind it is cell-based. Put shortly: (§2)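 Viability read as CellTiter-Glo luminescence after 48 h compound treatment at 0.2% DMSO final. Eight concentrations, 5-fold steps, made as 500× DMSO stocks starting at 5 mM. Percent inhibition curve-fitted (Hill slope, top, bottom) to give IC50.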
Background: Cellular ATP, detected with luciferase, serves as a proxy for viable cell number.

The target of a further assay is BaF3-Del_TM_CS cells (Homo sapiens, UniProt P00533, T790M/C797S, cells depend on it, form not given). The experiment in a line: Cell antiproliferation assay (CellTiter-Glo), BaF3-Del_TM_CS. Conditions: 48 h treatment, read-out: BaF3-Del_TM_CS IC50. In kind it is cell-based. A digest of the protocol: as §2
In the next assay the target is BaF3-LR_TM_CS cells (Homo sapiens, UniProt P00533, T790M/C797S/L858R, cells depend on it). The experiment in a line: Cell antiproliferation assay (CellTiter-Glo), BaF3-LR_TM_CS. The format is cell-based. The settings on record: 48 h treatment, read-out: BaF3-LR_TM_CS IC50. Put shortly: as §2
In assay [3] the target is T2, EGFR(L858R_T790M_C797S) (aa695-end, Invitrogen) (Homo sapiens, UniProt P00533, C797S/L858R/T790M).
T2 construct: purchased Invitrogen
The experiment in a line: Biochemical EGFR inhibition assay (TR-FRET), L858R/T790M/C797S mutant. The settings on record: ATP at Km, 15 min pre-incubation, 60 min reaction; read-out: LR_TM_CS (Km ATP) IC50. Put shortly: as §1

From patent US20260167619A2, “INDOLINE COMPOUNDS AND DERIVATIVES AS EGFR INHIBITORS” (BeOne Medicines I GmbH, priority 2020, published 2026) come the findings set out here.

For orientation: IC50 means the midpoint of a concentration-inhibition curve.

Sequence of BaF3-WT cells (P00533 whole entry, change not shown): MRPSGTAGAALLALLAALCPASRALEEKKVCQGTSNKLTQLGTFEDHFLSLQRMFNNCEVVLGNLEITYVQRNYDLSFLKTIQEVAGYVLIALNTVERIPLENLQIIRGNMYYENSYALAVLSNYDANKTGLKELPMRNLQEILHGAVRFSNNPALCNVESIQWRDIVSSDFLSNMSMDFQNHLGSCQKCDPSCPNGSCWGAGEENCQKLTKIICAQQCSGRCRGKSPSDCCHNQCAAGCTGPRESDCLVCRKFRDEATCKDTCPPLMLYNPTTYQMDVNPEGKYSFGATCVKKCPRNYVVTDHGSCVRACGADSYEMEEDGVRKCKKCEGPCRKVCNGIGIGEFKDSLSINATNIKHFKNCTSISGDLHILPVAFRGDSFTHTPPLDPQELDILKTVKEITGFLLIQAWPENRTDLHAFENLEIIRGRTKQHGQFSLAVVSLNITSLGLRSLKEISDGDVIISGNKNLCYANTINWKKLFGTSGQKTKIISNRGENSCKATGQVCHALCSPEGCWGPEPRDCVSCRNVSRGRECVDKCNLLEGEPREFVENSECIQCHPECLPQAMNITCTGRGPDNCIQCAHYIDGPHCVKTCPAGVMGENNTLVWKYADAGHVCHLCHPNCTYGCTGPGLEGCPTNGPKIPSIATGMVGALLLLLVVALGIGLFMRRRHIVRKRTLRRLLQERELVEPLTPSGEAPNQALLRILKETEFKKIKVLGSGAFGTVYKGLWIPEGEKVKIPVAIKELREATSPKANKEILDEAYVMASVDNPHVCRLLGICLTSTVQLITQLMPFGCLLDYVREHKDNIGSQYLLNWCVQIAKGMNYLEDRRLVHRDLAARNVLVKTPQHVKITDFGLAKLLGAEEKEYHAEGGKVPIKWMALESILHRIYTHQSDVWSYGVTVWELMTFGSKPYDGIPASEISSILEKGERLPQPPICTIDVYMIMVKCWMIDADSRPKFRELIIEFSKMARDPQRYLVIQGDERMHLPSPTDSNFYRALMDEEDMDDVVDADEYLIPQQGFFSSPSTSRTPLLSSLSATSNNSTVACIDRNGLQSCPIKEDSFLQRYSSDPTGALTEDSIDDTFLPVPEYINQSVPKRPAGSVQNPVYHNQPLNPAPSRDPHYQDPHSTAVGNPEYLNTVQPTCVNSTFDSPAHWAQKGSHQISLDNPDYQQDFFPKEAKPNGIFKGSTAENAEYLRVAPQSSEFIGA
T1 sequence (P00533 668-1210): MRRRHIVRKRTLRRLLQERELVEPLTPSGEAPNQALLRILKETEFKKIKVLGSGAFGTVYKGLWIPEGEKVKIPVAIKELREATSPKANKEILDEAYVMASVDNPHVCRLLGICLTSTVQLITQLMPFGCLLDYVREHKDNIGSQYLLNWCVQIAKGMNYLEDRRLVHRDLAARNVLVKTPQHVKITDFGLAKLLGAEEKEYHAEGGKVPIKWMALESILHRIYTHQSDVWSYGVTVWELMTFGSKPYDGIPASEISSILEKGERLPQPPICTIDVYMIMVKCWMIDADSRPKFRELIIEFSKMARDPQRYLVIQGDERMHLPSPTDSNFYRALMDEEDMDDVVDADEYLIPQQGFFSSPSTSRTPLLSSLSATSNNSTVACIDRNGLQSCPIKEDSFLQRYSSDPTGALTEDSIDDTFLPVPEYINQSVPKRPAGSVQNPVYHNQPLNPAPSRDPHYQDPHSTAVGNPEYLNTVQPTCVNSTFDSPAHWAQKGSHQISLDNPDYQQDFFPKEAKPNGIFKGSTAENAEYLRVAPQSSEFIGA
T2 sequence (P00533 695-1210 T790M/C797S/L858R): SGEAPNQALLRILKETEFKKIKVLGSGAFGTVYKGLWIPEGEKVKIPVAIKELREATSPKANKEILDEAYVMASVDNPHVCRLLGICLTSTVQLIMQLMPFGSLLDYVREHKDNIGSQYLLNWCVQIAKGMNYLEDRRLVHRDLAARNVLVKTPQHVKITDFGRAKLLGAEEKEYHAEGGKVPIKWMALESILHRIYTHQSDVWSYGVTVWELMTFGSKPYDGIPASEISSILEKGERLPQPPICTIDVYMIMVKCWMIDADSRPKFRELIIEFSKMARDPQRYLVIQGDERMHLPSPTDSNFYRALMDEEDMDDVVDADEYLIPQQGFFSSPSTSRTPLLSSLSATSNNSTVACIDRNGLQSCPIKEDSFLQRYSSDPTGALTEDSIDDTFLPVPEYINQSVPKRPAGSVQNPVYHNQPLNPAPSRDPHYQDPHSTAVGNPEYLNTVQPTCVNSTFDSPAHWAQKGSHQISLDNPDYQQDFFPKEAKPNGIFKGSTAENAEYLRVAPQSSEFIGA
Sequence of BaF3-LR_TM_CS cells (P00533 whole entry T790M/C797S/L858R, the tested form may be a part): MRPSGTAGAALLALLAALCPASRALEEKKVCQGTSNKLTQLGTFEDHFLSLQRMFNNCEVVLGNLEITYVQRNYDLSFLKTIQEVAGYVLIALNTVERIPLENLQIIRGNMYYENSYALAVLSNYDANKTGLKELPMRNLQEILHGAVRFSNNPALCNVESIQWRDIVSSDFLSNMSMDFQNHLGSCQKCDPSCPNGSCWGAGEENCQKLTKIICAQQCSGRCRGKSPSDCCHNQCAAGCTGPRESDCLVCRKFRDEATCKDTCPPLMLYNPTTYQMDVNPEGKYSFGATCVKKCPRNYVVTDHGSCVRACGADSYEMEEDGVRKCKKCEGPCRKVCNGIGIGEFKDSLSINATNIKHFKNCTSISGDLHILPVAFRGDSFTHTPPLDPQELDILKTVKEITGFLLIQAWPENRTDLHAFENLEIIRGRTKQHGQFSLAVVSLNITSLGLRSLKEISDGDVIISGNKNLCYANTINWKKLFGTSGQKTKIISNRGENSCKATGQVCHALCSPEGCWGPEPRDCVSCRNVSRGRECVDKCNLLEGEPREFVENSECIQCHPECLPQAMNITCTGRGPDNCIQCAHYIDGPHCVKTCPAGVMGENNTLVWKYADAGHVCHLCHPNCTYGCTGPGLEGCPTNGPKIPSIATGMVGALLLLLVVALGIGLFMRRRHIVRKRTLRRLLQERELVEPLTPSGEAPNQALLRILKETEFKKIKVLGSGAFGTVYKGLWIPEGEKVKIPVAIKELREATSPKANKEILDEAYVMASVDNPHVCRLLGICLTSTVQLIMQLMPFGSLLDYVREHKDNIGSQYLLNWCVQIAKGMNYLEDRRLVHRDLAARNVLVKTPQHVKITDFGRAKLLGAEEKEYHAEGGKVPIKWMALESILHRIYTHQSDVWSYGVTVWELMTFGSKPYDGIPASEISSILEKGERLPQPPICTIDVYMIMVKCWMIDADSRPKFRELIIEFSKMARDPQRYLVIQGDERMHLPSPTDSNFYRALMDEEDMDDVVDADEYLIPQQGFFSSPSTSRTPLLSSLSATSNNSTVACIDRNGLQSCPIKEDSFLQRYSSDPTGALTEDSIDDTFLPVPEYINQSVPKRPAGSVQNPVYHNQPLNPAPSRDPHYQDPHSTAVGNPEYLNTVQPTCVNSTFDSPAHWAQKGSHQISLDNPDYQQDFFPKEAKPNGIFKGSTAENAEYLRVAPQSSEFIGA
Sequence of BaF3-Del_TM_CS cells (P00533 with tags, fused parts or gaps DEL746-750/T790M/C797S, form open): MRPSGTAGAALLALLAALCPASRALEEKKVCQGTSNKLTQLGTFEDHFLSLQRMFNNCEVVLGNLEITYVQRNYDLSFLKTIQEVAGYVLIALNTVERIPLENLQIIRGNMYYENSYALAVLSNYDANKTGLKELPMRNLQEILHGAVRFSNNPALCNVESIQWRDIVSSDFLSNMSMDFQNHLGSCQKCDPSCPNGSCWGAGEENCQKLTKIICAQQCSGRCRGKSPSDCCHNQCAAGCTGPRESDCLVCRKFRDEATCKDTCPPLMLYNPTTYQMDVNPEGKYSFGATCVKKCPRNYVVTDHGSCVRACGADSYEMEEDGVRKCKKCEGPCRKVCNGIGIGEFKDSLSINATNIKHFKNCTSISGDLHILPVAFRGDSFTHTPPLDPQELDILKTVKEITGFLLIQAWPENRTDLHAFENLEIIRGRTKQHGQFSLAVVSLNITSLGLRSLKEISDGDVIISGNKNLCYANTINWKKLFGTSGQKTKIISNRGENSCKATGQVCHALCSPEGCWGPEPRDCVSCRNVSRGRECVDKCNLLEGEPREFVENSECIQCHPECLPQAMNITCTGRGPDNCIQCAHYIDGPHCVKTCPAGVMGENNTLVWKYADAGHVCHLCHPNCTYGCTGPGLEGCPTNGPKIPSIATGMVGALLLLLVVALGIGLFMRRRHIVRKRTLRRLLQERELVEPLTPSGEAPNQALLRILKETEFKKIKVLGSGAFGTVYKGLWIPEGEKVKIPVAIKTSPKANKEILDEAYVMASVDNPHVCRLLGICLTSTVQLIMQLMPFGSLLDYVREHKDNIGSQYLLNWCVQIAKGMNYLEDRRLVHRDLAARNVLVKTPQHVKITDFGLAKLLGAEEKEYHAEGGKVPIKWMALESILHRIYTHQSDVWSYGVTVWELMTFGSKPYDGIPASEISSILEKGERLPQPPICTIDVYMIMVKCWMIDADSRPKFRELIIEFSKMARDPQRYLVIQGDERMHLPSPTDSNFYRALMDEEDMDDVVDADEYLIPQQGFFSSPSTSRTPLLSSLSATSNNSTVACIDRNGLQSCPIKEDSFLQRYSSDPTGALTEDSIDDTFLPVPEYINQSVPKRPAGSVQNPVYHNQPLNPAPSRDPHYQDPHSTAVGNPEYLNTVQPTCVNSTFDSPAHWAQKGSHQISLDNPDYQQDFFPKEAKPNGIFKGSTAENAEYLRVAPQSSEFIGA

Turning to `CCN1CCN(C2CCN(c3ccc(Nc4nc(Nc5ccc(F)c6c5N(S(C)(=O)=O)CC65CCC5)c5cc[nH]c5n4)cc3F)CC2)CC1` [Example 83, N^2-(4-(4-(4-ethylpiperazin-1-yl)piperidin-1-yl)-3-fluorophenyl)-N^4-(4′-fluoro-1′-(methylsulfonyl)spiro[cyclobutane-1,3′-indolin]-7′-yl)-7H-pyrrolo[2,3-d]pyrimidine-2,4-diamine], the IC50 is 37 nM in assay [1], 7290 nM in assay [2] and 42 nM in assay [3]. The GI50 on BaF3-WT cells amounted to 1860 nM; at BaF3-Del_TM_CS cells, 707 nM; at BaF3-LR_TM_CS cells, 1040 nM.

For the compound `CN1CCN(c2ccc(Nc3nc(Nc4cccc5c4N(S(C)(=O)=O)CC5)c4cc[nH]c4n3)cc2F)CC1` [Example 84, N^2-(3-fluoro-4-(4-methylpiperazin-1-yl)phenyl)-N^4-(1-(methylsulfonyl)indolin-7-yl)-7H-pyrrolo[2,3-d]pyrimidine-2,4-diamine], the IC50 in assay [1] was determined as 1.6 nM; in assay [2], 150 nM; in assay [3], 1.5 nM. Also, the GI50 on BaF3-WT cells was 335 nM; on BaF3-Del_TM_CS cells, 10.7 nM; on BaF3-LR_TM_CS cells it was 78 nM.

As to `CN1CCN(c2ccc(Nc3nc(Nc4cccc5c4N(S(C)(=O)=O)CC5)c4cc[nH]c4n3)c(F)c2F)CC1` [Example 85, N^2-(2,3-difluoro-4-(4-methylpiperazin-1-yl)phenyl)-N^4-(1-(methylsulfonyl)indolin-7-yl)-7H-pyrrolo[2,3-d]pyrimidine-2,4-diamine], the IC50 came out at 15 nM in assay [1], 1300 nM in assay [2] and 8.9 nM in assay [3]. Besides, the values for the GI50 at BaF3-WT cells, on BaF3-Del_TM_CS cells and at BaF3-LR_TM_CS cells were 274 nM, 91.6 nM and 141 nM, respectively.

Turning to `COc1cc(N2CCC(N3CCN(C)CC3)CC2)ccc1Nc1nc(Nc2cccc3c2N(S(C)(=O)=O)CC3)c2cc[nH]c2n1` [Example 90, N^2-(2-methoxy-4-(4-(4-methylpiperazin-1-yl)piperidin-1-yl)phenyl)-N^4-(1-(methylsulfonyl)indolin-7-yl)-7H-pyrrolo[2,3-d]pyrimidine-2,4-diamine], the half-maximal inhibitory concentration (IC50) was 1.5 nM in assay [1], 44 nM in assay [2] and 1.04 nM in assay [3]. The GI50 at BaF3-WT cells was 2560 nM; at BaF3-Del_TM_CS cells, 87.5 nM; on BaF3-LR_TM_CS cells, 191 nM.

On to `COc1cc(N2CCC(N3CCN(C)CC3)CC2)c(C)cc1Nc1nc(Nc2cccc3c2N(S(C)(=O)=O)CC3)c2cc[nH]c2n1` [Example 91, N^2-(2-methoxy-5-methyl-4-(4-(4-methylpiperazin-1-yl)piperidin-1-yl)phenyl)-N^4-(1-(methylsulfonyl)indolin-7-yl)-7H-pyrrolo[2,3-d]pyrimidine-2,4-diamine], for which the half-maximal inhibitory concentration (IC50) was found to be 0.94 nM in assay [1], 17 nM in assay [2] and 0.42 nM in assay [3]. Besides, the values for the GI50 at BaF3-WT cells, on BaF3-Del_TM_CS cells and at BaF3-LR_TM_CS cells were 949 nM, 12.8 nM and 40.5 nM, respectively.

As to `Cc1cc(Nc2nc(Nc3cccc4c3N(S(C)(=O)=O)CC4)c3cc[nH]c3n2)c(OC(C)C)cc1N1CCC(N2CCN(C)CC2)CC1` [Example 92, N^2-(2-isopropoxy-5-methyl-4-(4-(4-methylpiperazin-1-yl)piperidin-1-yl)phenyl)-N^4-(1-(methylsulfonyl)indolin-7-yl)-7H-pyrrolo[2,3-d]pyrimidine-2,4-diamine], the figures for the 50% inhibitory concentration (IC50) in assay [1], in assay [2] and in assay [3] were 14 nM, 1530 nM and 17 nM, respectively. The GI50 on BaF3-WT cells worked out at 1400 nM; on BaF3-Del_TM_CS cells it was 225 nM; at BaF3-LR_TM_CS cells, 504 nM.

In the case of `CCOc1cc(N2CCC(N3CCN(C)CC3)CC2)c(C)cc1Nc1nc(Nc2cccc3c2N(S(C)(=O)=O)CC3)c2cc[nH]c2n1` [Example 93, N^2-(2-ethoxy-5-methyl-4-(4-(4-methylpiperazin-1-yl)piperidin-1-yl)phenyl)-N^4-(1-(methylsulfonyl)indolin-7-yl)-7H-pyrrolo[2,3-d]pyrimidine-2,4-diamine], the IC50 stood at 2.6 nM in assay [1], 110 nM in assay [2] and 1.5 nM in assay [3]. Further, the GI50 on BaF3-WT cells came out at 1520 nM; on BaF3-Del_TM_CS cells, 54.1 nM; at BaF3-LR_TM_CS cells, 218 nM.

In the case of `CCc1cc(Nc2nc(Nc3cccc4c3N(S(C)(=O)=O)CC4)c3cc[nH]c3n2)c(OC)cc1N1CCC(N2CCN(C)CC2)CC1` [Example 94, N^2-(5-ethyl-2-methoxy-4-(4-(4-methylpiperazin-1-yl)piperidin-1-yl)phenyl)-N^4-(1-(methylsulfonyl)indolin-7-yl)-7H-pyrrolo[2,3-d]pyrimidine-2,4-diamine], the IC50 in assay [1] came to 1.5 nM; in assay [2], 29 nM; in assay [3], 1.1 nM. In addition, the GI50 on BaF3-WT cells was determined as 640 nM; on BaF3-Del_TM_CS cells, 10.9 nM; on BaF3-LR_TM_CS cells, 84.8 nM.

Regarding `COc1cc(N2CCC(N3CCN(C)CC3)CC2)c(Cl)cc1Nc1nc(Nc2cccc3c2N(S(C)(=O)=O)CC3)c2cc[nH]c2n1` [Example 95, N^2-(5-chloro-2-methoxy-4-(4-(4-methylpiperazin-1-yl)piperidin-1-yl)phenyl)-N^4-(1-(methylsulfonyl)indolin-7-yl)-7H-pyrrolo[2,3-d]pyrimidine-2,4-diamine], the results for the half-maximal inhibitory concentration (IC50) in assay [1], in assay [2] and in assay [3] were 1.4 nM, 28 nM and 0.79 nM, respectively. In addition, the results for the GI50 at BaF3-WT cells, on BaF3-Del_TM_CS cells and on BaF3-LR_TM_CS cells were 1960 nM, 9.58 nM and 83.8 nM, respectively.

Turning to `COc1cc(N2CCC3(CCN(C)CC3)CC2)c(Cl)cc1Nc1nc(Nc2cccc3c2N(S(C)(=O)=O)CC3)c2cc[nH]c2n1` [Example 96, N^2-(5-chloro-2-methoxy-4-(9-methyl-3,9-diazaspiro[5.5]undecan-3-yl)phenyl)-N^4-(1-(methylsulfonyl)indolin-7-yl)-7H-pyrrolo[2,3-d]pyrimidine-2,4-diamine], the 50% inhibitory concentration (IC50) in assay [1] worked out at 1.7 nM; in assay [2], 109 nM; in assay [3] it was 1.4 nM. Further, the GI50 at BaF3-WT cells was 1480 nM; on BaF3-Del_TM_CS cells it was 29.3 nM; on BaF3-LR_TM_CS cells it was 66.5 nM.

On to `COc1cc(N2CC3(CN(C)C3)C2)c(F)cc1Nc1nc(Nc2cccc3c2N(S(C)(=O)=O)CC3)c2cc[nH]c2n1` [Example 97, N^2-(5-fluoro-2-methoxy-4-(6-methyl-2,6-diazaspiro[3.3]heptan-2-yl)phenyl)-N^4-(1-(methylsulfonyl)indolin-7-yl)-7H-pyrrolo[2,3-d]pyrimidine-2,4-diamine], for which the 50% inhibitory concentration (IC50) in assay [1] was 4.3 nM; in assay [2] it was 206 nM; in assay [3] it was 2.4 nM. The GI50 at BaF3-WT cells was found to be 1930 nM; on BaF3-Del_TM_CS cells, 104 nM; on BaF3-LR_TM_CS cells, 240 nM.

As for `COc1cc(N2CCC(N3CCN(C)CC3)CC2)c(F)cc1Nc1nc(Nc2cccc3c2N(S(C)(=O)=O)CC3)c2cc[nH]c2n1` [Example 98, N^2-(5-fluoro-2-methoxy-4-(4-(4-methylpiperazin-1-yl)piperidin-1-yl)phenyl)-N4-(1-(methylsulfonyl)indolin-7-yl)-7H-pyrrolo[2,3-d]pyrimidine-2,4-diamine], the values for the IC50 in assay [1], in assay [2] and in assay [3] were 0.96 nM, 22 nM and 0.56 nM, respectively. Further, the GI50 was found to be 1460 nM on BaF3-WT cells, 24.7 nM at BaF3-Del_TM_CS cells and 76.5 nM at BaF3-LR_TM_CS cells.

Turning to `COc1cc(C2CCN(C)CC2)c(C)cc1Nc1nc(Nc2cccc3c2N(S(C)(=O)=O)CC3)c2cc[nH]c2n1` [Example 99, N^2-(2-methoxy-5-methyl-4-(1-methylpiperidin-4-yl)phenyl)-N^4-(1-(methylsulfonyl)indolin-7-yl)-7H-pyrrolo[2,3-d]pyrimidine-2,4-diamine], the IC50 in assay [1] came out at 8.6 nM; in assay [2], 427 nM; in assay [3], 3 nM. For the same compound, the GI50 amounted to 1970 nM at BaF3-WT cells, 59 nM on BaF3-Del_TM_CS cells and 399 nM on BaF3-LR_TM_CS cells.

Consider `COc1cc(N2CCC3(CC2)CN(C)C3)c(C)cc1Nc1nc(Nc2cccc3c2N(S(C)(=O)=O)CC3)c2cc[nH]c2n1` [Example 100, N^2-(2-methoxy-5-methyl-4-(2-methyl-2,7-diazaspiro[3.5]nonan-7-yl)phenyl)-N^4-(1-(methylsulfonyl)indolin-7-yl)-7H-pyrrolo[2,3-d]pyrimidine-2,4-diamine], for which the IC50 stood at 1 nM in assay [1], 49 nM in assay [2] and 0.92 nM in assay [3]. Moreover, the GI50 at BaF3-WT cells turned out to be 1590 nM; at BaF3-Del_TM_CS cells, 39.9 nM; on BaF3-LR_TM_CS cells it was 116 nM.
